Measurements published in US5612327A, “1α,24-(OH)2 -cholecalciferol emulsion composition and method for treating psoriasis” (priority 1993, dated 1997).

Key:
[1] = Solubility and chemical stability of 1α,24-(OH)2 --V.D3; assay type: physicochemical; conditions: non-polar solvent
[2] = system: excised skin (full skin) of Wistar rat; assay: Skin permeability of active ingredient from cream composition; assay type: in vitro ADME; conditions: 0.25 part by weight in bases of Examples 1, 4, 5 and Control Examples 14 to 21; Test Method 3
Description: For the skin, use was made of skin cut off from a dilapidated Wistar rat (full skin=including stratum corneum, epidermis, and dermis). For the reservoir solution, use was made of Hanks buffer (pH=7.4) plus 10% bovine fetal serum. […] (For the method of assay, see below.)

SMILES | Solubility (in words) [1] | Skin permeability of hydrocortisone acetate (in words) [2]
C=C1C(=CC=C2CCCC3(C)C2CCC3C(C)CCC(O)C(C)C)CC(O)CC1O (stereo not drawn) [1α,24-(OH)2 --V.D3, 1α,24-dihydroxylcholecalciferol] | does not dissolve much at all in a non-polar solvent | –
CC(=O)OCC(=O)[C@@]1(O)CC[C@H]2[C@@H]3CCC4=CC(=O)CC[C@]4(C)[C@H]3[C@@H](O)C[C@@]21C [hydrocortisone acetate] | – | almost completely unrelated to the weight ratio of the stearyl alcohol and cetyl alcohol
